Measurements published in US20030229451A1, “Methods and systems for analyzing complex biological systems” (priority 2001, published 2003).

Experiments:
[1] = system: Arabidopsis thaliana plants; test: SOA1 phenotypic analysis of herbicide-treated Arabidopsis (MIC, Tmic, leaf traits); type: in vivo; conditions: for leafCurling Dev. / leafTwisting Dev. / leafWidth Dev. / matureLeafAnthocyanins Dev. / matureLeafChlorosis Dev. / matureLeafNecrosis Dev. / newLeafAnthocyanins Dev. / newLeafChlorosis Dev. / newLeafNecrosis Dev. / pointedLeaves Dev.: numeric value standardized to mock treated; for tMic Dev.: time to full range of symptoms at MIC, coded; for characteristic morphological symptoms: herbicide-treated Arabidopsis
[2] = system: Arabidopsis thaliana; test: MOA1 biochemical (metabolite) profiling by LC-MS and GC-MS

Compound	leafCurling Dev. [1]	leafTwisting Dev. [1]	leafWidth Dev. [1]	matureLeafAnthocyanins Dev. [1]	matureLeafChlorosis Dev. [1]	matureLeafNecrosis Dev. [1]	newLeafAnthocyanins Dev. [1]	newLeafChlorosis Dev. [1]	newLeafNecrosis Dev. [1]	pointedLeaves Dev. [1]	tMic Dev. [1]	Number of Metabolites Changed: (unknown #) ([2]; 20 min, p < 0.05)	Number of Metabolites Changed: Total # ([2]; 20 min, p < 0.05)	Number of Metabolites Changed: (unknown #) ([2]; 20 min, p < 0.11)	Number of Metabolites Changed: Total # ([2]; 20 min, p < 0.11)	Number of Metabolites Changed: (unknown #) ([2]; 1 hr, p < 0.05)	Number of Metabolites Changed: Total # ([2]; 1 hr, p < 0.05)	Number of Metabolites Changed: (unknown #) ([2]; 1 hr, p < 0.11)	Number of Metabolites Changed: Total # ([2]; 1 hr, p < 0.11)	characteristic morphological symptoms [1]	further results
O=C(O)COc1ccc(Cl)cc1Cl [2,4-D]	1	2	−1	1	2	0	0	1	0	0	2	2	3	8	13	3	7	15	25		Symptom Class ([1]; three-week-old Arabidopsis, phenotype class (FIG. 12)): 5
O=C(O)c1cc(Oc2ccc(C(F)(F)F)cc2Cl)ccc1[N+](=O)[O-] [Acifluorfen]	1	0	0	0	0	1	0	0	3	0	1	11	17	20	32	13	19	22	31	Necrotic leaf flecks	
Nc1nc[nH]n1 [Amitrole]	−1	0	2	0	3	0	0	4	0	0	2	6	9	13	17	8	14	20	32	leaf bleaching and leaf enlargement	
CCNc1nc(Cl)nc(NC(C)C)n1 [Atrazine]	1	0	−1	0	1	4	0	1	4	1	1	4 (4)	4 (4)	8	11	8	17	24	49	rapid and widespread leaf necrosis	
O=C(O)Cn1c(=O)sc2cccc(Cl)c21 [Benazolin]	2	2	−2	0	0	0	0	0	0	0	2										
CC(C)N1C(=O)c2ccccc2NS1(=O)=O [Bentazon]	2	0	−2	0	2	4	0	2	4	1	1	3	9	6	10	9	11	14	19	rapid and widespread leaf necrosis	
COC(=O)c1cc(Oc2ccc(Cl)cc2Cl)ccc1[N+](=O)[O-] [Bifenox]	1	0	0	0	0	1	0	0	3	0	1									Necrotic leaf flecks	
CCSC(=O)N(CC(C)C)CC(C)C [Butylate]												10	17	21	33	12	18	22	31		
CC(C)OC(=O)Nc1cccc(Cl)c1 [Chloropropham]												8	12	10	17	5	12	10	20		
COc1c(Cl)ccc(Cl)c1C(=O)O [Dicamba]	2	2	−2	0	2	0	0	0	0	0	2										
c1cc[n+]2c(c1)-c1cccc[n+]1CC2 [Diquat]	2	0	−2	0	1	4	0	1	4	1	2									rapid and widespread leaf necrosis	
CN(C)C(=O)Nc1ccc(Cl)c(Cl)c1 [Diuron]	1	0	−2	0	2	4	0	2	4	1	1									rapid and widespread leaf necrosis	
CC(C)C1(C)N=C(c2ncccc2C(=O)O)NC1=O (stereo not drawn) [Imazapyr]	0	0	0	2	0	0	0	2	0	0	2	2	5	3	9	6	8	10	14	anthocyanin accumulation in the older leaves accompanied by chlorosis of the newly emerging leaves	
CCc1cnc(C2=NC(C)(C(C)C)C(=O)N2)c(C(=O)O)c1 (stereo not drawn) [Imazethapyr]	1	1	0	3	0	0	0	2	0	0	2									anthocyanin accumulation in the older leaves accompanied by chlorosis of the newly emerging leaves	
CCC(C)(CC)c1cc(NC(=O)c2c(OC)cccc2OC)on1 [Isoxaben]												12	26	21	45	16	25	33	55		
CSc1nnc(C(C)(C)C)c(=O)n1N [Metribuzin]	1	0	−2	0	2	4	0	2	4	1	1									rapid and widespread leaf necrosis	
CNc1cnn(-c2cccc(C(F)(F)F)c2)c(=O)c1Cl [Norflurazon]												27	38	36	55	5	6	8	12		
